We go through one molecule from patent US20120251595A1, “EMULSION TEMPLATE METHOD TO FORM SMALL PARTICLES OF HYDROPHOBIC AGENTS WITH SURFACE ENRICHED HYDROPHILICITY BY ULTRA RAPID FREEZING” (BOARD OF REGENTS, THE UNIVERSITY OF TEXAS SYSTEM, priority 2009, published 2012).

Molecules are shown by their SMILES. ≈ marks a conversion by molar mass, not a printed value.

The nature of series [1]: X-ray photoelectron spectroscopy (XPS) of particle surface composition. In kind it is physicochemical. The method, then:
[…]
Powders containing ITZ were prepared according to procedures outlined in Examples 1, 2, 3, and 4 with the same formulations. The elemental composition of the particle surfaces was determined using X-ray photoelectron spectroscopy (XPS). […] Percent surface excess of ITZ was calculated by deducting 50% from the percent surface compositions of ITZ while percent surface excess of lecithin was calculated by deducting 25% from the percent surface compositions of lecithin. […]

Series [2] can be described thus: Solubility and pKa of itraconazole. In kind it is physicochemical. Conditions: pH 1.2 dissolution media, simulated gastric fluid, thermodynamic from solid, crystalline ITZ, read-out: Equilibrium solubility Ceq. The text has this:
This study compares the effectiveness of fine emulsion templating and co-solvent approaches with the URF process to enhance the wetting and solubility of the model drug, itraconazole (ITZ). Itraconazole (ITZ) is a weakly basic broad-spectrum triazole antifungal agent indicated in the treatment of both local and systemic fungal infections; however, successful treatment of infections is often complicated by its low aqueous solubility resulting in variable absorption and plasma concentration. Classified as a BCS class II compound, ITZ has a strongly pH dependent solubility (pKa˜3.7) with reported solubilities in acidic and neutral media of approximately 4 μg/mL and 1 ng/mL, respectively. While limited by poor aqueous solubility, the highly lipophilic nature of the compound allows for high permeability of intestinal membranes. […]

The conditions of series [3]: cited from earlier work.

In the case of `CCC(C)n1ncn(-c2ccc(N3CCN(c4ccc(OCC5COC(Cn6cncn6)(c6ccc(Cl)cc6Cl)O5)cc4)CC3)cc2)c1=O` (stereo not shown) [ITZ, itraconazole], in series [1], the “Mass Concentration Chlorine, SOL” value came to 9.54% and the “Surface composition ITZ, SOL” value was found to be 100.0%. Further, in series [2], the solubility thermodynamic is 5 µg/mL (≈ 7.09 µM). In addition, the pKa in series [3] was roughly 3.7.
